Tests used:
Format in all cases: functional
Conditions in all cases: ip
Rattus norvegicus = experiment: Tested for the protection against glutamic acid-evoked convulsions in rats by intraperitoneal administration
Mus musculus [1] = experiment: Protective effect against mortality induced by hypobaric hypoxia in mice by intraperitoneal (i.p.) administration.
Mus musculus [2] = experiment: Protective effect against mortality induced by hypobaric hypoxia in mice by intraperitoneal (i.p.) administration; Range 2.5-10

SMILES | ED50 (Rattus norvegicus) [mg/kg] | ED50 (Mus musculus [1]) [mg/kg] | ED50 (Mus musculus [2]) [mg/kg]
N=c1sc2cc(OC(F)(F)F)ccc2n1CC(N)=O | 7 | – | –
CCSCCn1/c(=N/OC)sc2cc(OC(F)(F)F)ccc21 | > 10 | – | –
C[S+]([O-])Cn1c(=N)sc2cc(OC(F)(F)F)ccc21 (configuration not stated) | 2.3 | – | –
CCC(C)(C)c1ccc2nc(N)sc2c1 | > 10 | – | –
CCSCCn1/c(=N/O)sc2cc(OC(F)(F)F)ccc21 | > 10 | – | –
CCCCc1ccc2c(c1)sc(=N)n2CC[S+]([O-])CC (configuration not stated) | > 10 | – | –
N=c1sc2cc(OC(F)(F)F)ccc2n1CCN1CCCCC1 | 2 | < 5 | –
CCCc1ccc2nc(N)sc2c1 | 6 | – | –
C[S+]([O-])CCCn1c(=N)sc2cc(OC(F)(F)F)ccc21 (configuration not stated) | 2.3 | – | –
CCN(CC)C(=O)Cn1c(=N)sc2cc(OC(F)(F)F)ccc21 | 9 | – | –
CC[S+]([O-])CCn1c(=N)sc2cc(OC(F)(F)F)ccc21 (configuration not stated) | 1.2 | – | –
C#CCn1c(=N)sc2cc(OC(F)(F)F)ccc21 | 4 | – | –
Nc1nc2cccc(OC(F)(F)F)c2s1 | > 10 | – | –
Nc1nc2ccc([N+](=O)[O-])cc2s1 | > 10 | – | –
CC(C)(C)c1ccc2nc(N)sc2c1 | 4 | – | –
CN(C)CCn1c(=N)sc2cc(C(C)(C)C)ccc21 | > 10 | – | –
Nc1nc2ccc(OCC(F)(F)C(F)(F)F)cc2s1 | 7.5 | – | –
CS(=O)(=O)CCCn1c(=N)sc2cc(OC(F)(F)F)ccc21 | 5 | – | –
CC/N=c1\sc2cc(OC(F)(F)F)ccc2n1CCSC | 8.5 | – | –
CC(C)c1ccc2nc(N)sc2c1 | > 10 | – | –
CCCn1c(=N)sc2cc(OC(F)(F)F)ccc21 | 4.5 | – | –
Nc1nc2ccc(-c3ccccc3)cc2s1 | > 10 | – | –
CSCn1c(=N)sc2cc(OC(F)(F)F)ccc21 | 3 | – | –

SMILES | ED50 (Rattus norvegicus) [mg/kg] | ED50 (Mus musculus [1]) [mg/kg] | ED50 (Mus musculus [2]) [mg/kg]
CCn1c(=N)sc2cc(OC(F)(F)F)ccc21 | 5 | – | –
CCS(=O)(=O)CCn1c(=N)sc2cc(C(F)(F)C(F)(F)F)ccc21 | 2.1 | – | –
CNS(=O)(=O)CCn1c(=N)sc2cc(OC(F)(F)F)ccc21 | 4 | – | –
CCSCCn1c(=N)sc2cc(OC(F)(F)F)ccc21 | 2.2 | – | –
CCCCCCCc1ccc2nc(N)sc2c1 | > 10 | – | –
CCc1ccc2nc(N)sc2c1 | 7 | – | –
C[S+]([O-])CCn1c(=N)sc2cc(OC(F)(F)F)ccc21 (configuration not stated) | 1.1 | 5.5 | –
Nc1nc2ccc(OC(F)(F)F)cc2s1 [RILUZOLE] | 3.2 | 4 | –
Nc1nc2ccc(C(=O)C(F)(F)F)cc2s1 | > 10 | – | –
Nc1nc2ccc(OC(F)(F)C(F)F)cc2s1 | 8.5 | – | –
CCCCc1ccc2nc(N)sc2c1 | 4 | – | –
Nc1nc2ccc(OC(F)F)cc2s1 | 7.5 | – | –
Nc1nc2ccc(CC(F)(F)F)cc2s1 | 8 | – | –
Nc1nc2ccc(C(F)(F)C(F)(F)F)cc2s1 | 2.5 | – | –
Nc1nc2c(OC(F)(F)F)cccc2s1 | > 10 | – | –
CC(C)(C)Cc1ccc2nc(N)sc2c1 | > 10 | – | –
CCCSCCn1c(=N)sc2cc(OC(F)(F)F)ccc21 | 2.4 | – | –
Cn1c(=N)sc2cc(OC(F)(F)F)ccc21 | 5 | – | –
CS(=O)(=O)CCn1c(=N)sc2cc(OC(F)(F)F)ccc21 | 1.8 | – | 2.5
N=c1sc2cc(OC(F)(F)F)ccc2n1CCSc1ccccc1 | 4.5 | – | –
CN(C)CCn1c(=N)sc2ccccc21 | > 10 | – | –
Nc1nc2ccc(SC(F)(F)F)cc2s1 | 8 | – | –
CN(C)CCn1c(=N)sc2cc(OC(F)(F)F)ccc21 | 2.3 | 4 | –

SMILES | ED50 (Rattus norvegicus) [mg/kg] | ED50 (Mus musculus [1]) [mg/kg] | ED50 (Mus musculus [2]) [mg/kg]
CN(C)S(=O)(=O)CCn1c(=N)sc2cc(OC(F)(F)F)ccc21 | > 10 | – | –
N=c1sc2cc(OC(F)(F)F)ccc2n1CCN1CC=C(c2ccccc2)CC1 | 2.2 | – | 2.5
Nc1nc2ccc(C(F)(F)F)cc2s1 | 2.5 | – | –
CSCCCn1c(=N)sc2cc(OC(F)(F)F)ccc21 | 4.2 | – | –
Nc1nc2ccc(OCC(F)(F)F)cc2s1 | 6.5 | – | –
Nc1ccc2nc(N)sc2c1 | > 10 | – | –
N=c1sc2cc(OC(F)(F)F)ccc2n1CC(=O)O | > 10 | – | –
CC(C)(C)Oc1ccc2nc(N)sc2c1 | > 10 | – | –
C=CCn1c(=N)sc2cc(OC(F)(F)F)ccc21 | 7 | – | –
C[C@]12N[C@H](Cc3ccccc31)c1ccccc12 (racemic) [DIZOCILPINE] | 2.2 | – | –
CNCCn1c(=N)sc2cc(OC(F)(F)F)ccc21 | > 10 | – | –
CSCCn1c(=N)sc2cc(OC(F)(F)F)ccc21 | 1 | 14 | –
CC[S+]([O-])CCn1c(=N)sc2cc(C(F)(F)F)ccc21 (configuration not stated) | 1.7 | – | –
C[Si](C)(C)c1ccc2nc(N)sc2c1 | 5 | – | –
CCCCn1c(=N)sc2cc(OC(F)(F)F)ccc21 | 10 | – | –
N=c1sc2cc(OC(F)(F)F)ccc2n1CCS(=O)(=O)O | > 10 | – | –
CS(=O)(=O)c1ccc2nc(N)sc2c1 | > 10 | – | –
CCS(=O)(=O)CCn1c(=N)sc2cc(OC(F)(F)C(F)(F)F)ccc21 | 2.6 | – | –
N=c1sc2cc(OC(F)(F)F)ccc2n1Cc1ccccc1 | > 10 | – | –
N=c1sc2cc(OC(F)(F)F)ccc2n1CC[S+]([O-])c1ccccc1 (configuration not stated) | 4.2 | – | –
CN(CCc1ccccc1)CCn1c(=N)sc2cc(OC(F)(F)F)ccc21 | 5 | – | –
CCOC(=O)c1ccc2nc(N)sc2c1 | > 10 | – | –
N=c1sc2cc(OC(F)(F)F)ccc2n1CCN1CCN(c2ccccc2)CC1 | 3.5 | 5.5 | –

SMILES | ED50 (Rattus norvegicus) [mg/kg] | ED50 (Mus musculus [1]) [mg/kg] | ED50 (Mus musculus [2]) [mg/kg]
CSCCn1c(=O)sc2cc(OC(F)(F)F)ccc21 | > 10 | – | –
CN(CCn1c(=N)sc2cc(OC(F)(F)F)ccc21)Cc1ccccc1 | 7 | – | –
CC[S+]([O-])CCn1c(=N)sc2cc(C(C)(C)C)ccc21 (configuration not stated) | > 10 | – | –
N=c1sc2cc(OC(F)(F)F)ccc2n1CCCN1CCN(c2ccccc2)CC1 | 10 | > 10 | –
N=c1sc2cc(OC(F)(F)F)ccc2n1CCO | 8 | – | –
CN(C)CCCn1c(=N)sc2cc(OC(F)(F)F)ccc21 | 9 | – | –
Nc1nc2ccc(I)cc2s1 | > 10 | – | –
COc1ccc2nc(N)sc2c1 | > 10 | – | –
CCSCCn1/c(=N/C)sc2cc(OC(F)(F)F)ccc21 | 3.7 | – | –
N=c1sc2cc(OC(F)(F)F)ccc2n1CCS | 2 | – | –
N#Cc1ccc2nc(N)sc2c1 | > 10 | – | –
Nc1nc2ccc(OC(F)(F)C(F)(F)F)cc2s1 | 2.5 | – | –
N=c1sc2cc(OC(F)(F)F)ccc2n1CCS(N)(=O)=O | 6 | – | –
N=c1sc2cc(OC(F)(F)F)ccc2n1CCN1CCC(c2ccccc2)CC1 | 3 | – | 2.5
N=c1sc2cc(OC(F)(F)F)ccc2n1CCc1ccccc1 | > 10 | – | –
CCCCCCc1ccc2nc(N)sc2c1 | 7 | – | –
CSCCn1/c(=N/C(C)=O)sc2cc(OC(F)(F)F)ccc21 | > 10 | – | –
CCCCCc1ccc2nc(N)sc2c1 | 7.5 | – | –
Nc1nc2cc(OC(F)(F)F)ccc2s1 | > 10 | – | –
Nc1nc2ccc(C3CCCCC3)cc2s1 | > 10 | – | –
N#CCn1c(=N)sc2cc(OC(F)(F)F)ccc21 | 3.5 | – | –
COC(=O)Cn1c(=N)sc2cc(OC(F)(F)F)ccc21 | > 10 | – | –
Nc1nc2ccc(Br)cc2s1 | > 10 | – | –

Reference: ChEMBL document CHEMBL1132316 (J Med Chem, 1999)
